Measurements as given in publication PMC8807572, “The zebrafish embryo as an in vivo model for screening nanoparticle-formulated lipophilic anti-tuberculosis compounds” (Disease Models & Mechanisms, 2022).
Converted amounts (≈) assume the structure as drawn. “And” between values parts separate entries of the source, which are not always exact repeats. Identical values can stand only once. Like-named read-outs stand apart in the source and are kept apart here.

Legend:
[1] = system: Mtb; set-up: method as in data not published; conditions: in vitro, phenotypic HTS; ref data not published; cited from earlier work
[2] = system: extracellular Mm; assay: MIC90 resazurin microtiter assay against extracellular M. marinum; format: cell-based, Mycobacterium marinum
[3] = system: VERO cells; set-up: method as in data not published; conditions: cytotoxicity in VERO cells; ref data not published; cited from earlier work
[4] = system: intracellular Mm in murine BMDMs; assay: Anti-mycobacterial efficacy in M. marinum-infected BMDMs (CFU plating); format: cell-based, Mycobacterium marinum; conditions: for IC90: Mycobacterium marinum

Row | Compound | MIC90 against Mtb [1] [µg/mL] | MIC90 ([2]; Mycobacterium marinum) | MIC90 ([2]; extracellular Mm, resazurin assay) [µg/mL] | MIC90 ([2]; extracellular Mm, resazurin assay, read-out: MIC90) [µM] | CC50 [3] [µg/mL] | IC90 ([4]; BMDM) | IC99 ([4]; intracellular M. marinum in BMDM, calculated from the macrophage infection assay data) | MIC90 ([2]; Mycobacterium marinum, extracellular Mm, resazurin assay, read-out: MIC90) | IC99 [4] | IC90 ([4]; intracellular M. marinum in BMDM, calculated from the macrophage infection assay data, read-out: IC90)
1 | COc1ccc2c(ccc3oc([N+](=O)[O-])cc32)c1 [C16, 7-methoxy-2-nitronaphtho[2,1-b]furan] | < 8 | 0.016 µg/mL and 0.07 µM | 0.016 | 0.07 | 0.3 (≈ 1.23 µM) | 0.013 µg/mL and 60 nM | 0.03 µg/ml and 0.11 µM | – | – | –
2 | CO[C@H]1/C=C/O[C@@]2(C)Oc3c(C)c(O)c4c(O)c(c(/C=N/N5CCN(C)CC5)c(O)c4c3C2=O)NC(=O)/C(C)=C\C=C\[C@H](C)[C@H](O)[C@@H](C)[C@@H](O)[C@@H](C)[C@H](OC(C)=O)[C@@H]1C [RIF, rifampicin] | – | – | – | – | – | – | – | 0.1 µg/mL and 0.12 µM | 1.97 µg/ml and 2.41 µM | 0.878 µg/mL and 1.07 µM
